Laboratory results: paper PMC12794336, “Unconventional chalcogen-containing azolylidene metal complexes as potential anticancer therapeutics” (Chemical Science, 2025)

Columns and labels:
[1] = tested on: non-cancerous human embryonic kidney HEK293T cells; assay: Cytotoxicity, PrestoBlue assay, HEK293T; format: cell-based; conditions: 72 h, PrestoBlue; read-out: IC50 (µM) after 72 h, HEK293T
Experimental: (§1) counterpart, A2780cis, were procured from the European Collection of Cell
(§2) (ThermoFisher, USA) base medium supplemented with 10% Foetal Bovine
(§3) Serum (FBS; Sigma, Germany) and 1% of Penicillin-Streptomycin
(§4) (ThermoFisher, USA). Additionally, A2780cis cell line was cultured in the
(§5) drug. The human embryonic kidney cell line, HEK293T, and HeLa cell line were
(§6) obtained from American Type Culture Collection (ATCC, USA) and were cultured
(§7) in DMEM GlutaMAX (ThermoFisher, USA) base medium, supplemented with
(§8) 10% FBS and 1% of Penicillin-Streptomycin. All cell lines were maintained in a
(§9) humidified incubator at37 °C and 5% CO2.
(§10) 4.2. Cytotoxicity studies
(§11) cells/mL (A2780cis and HEK293T) was dispensed into flat bottom 96-well plates
(§12) and allowed to attach overnight. On the next day, 10 mM stock solutions of the
(§13) tested compounds were prepared in DMSO, then diluted with media to the final
(§14) concentration range of 0 - 100 µM and applied to the cells; 0.1% DMSO final
(§15) solution and 10 µM final concentration gambogic acid were used as negative and
(§16) positive controls, respectively. After 72 h incubation in a humidified incubator
(§17) under 5% CO2 at 37 °C, PrestoBlue™ cell viability reagent (Cat. No. A13262,
(§18) Invitrogen, USA) was added to cultures at a 1:10 ratio according to the
(§19) manufacturer instructions, and samples were incubated for 1.5 h. Fluorescence
(§20) at 560/590 nm was detected with Tecan Infinite 500 microplate reader (Tecan,
(§21) Switzerland). Three wells were assessed for each concentration of the tested
(§22) compounds and three independent experiments were performed. Non-linear
(§23) regression and IC50 value calculation were performed in GraphPad Prism 9 using
(§24) the build-in function “Dose response- Inhibition”.

[2] = tested on: A2780, A2780cis and HEK293T cell lines; assay: Cytotoxicity stated jointly for all three cell lines; format: cell-based, human; conditions: HEK293T together, 72 h
Experimental: as §1, §2, §3, §4, §5, §6, §7, §8, §9, §10, §11, §12, §13, §14, §15, §16
under 5% CO2 at 37 °C, PrestoBlue™ cell viability reagent (Cat. No. A13262, […]
as §19, §20
Switzerland). Three wells were assessed for each concentration of the tested […]

[3] = tested on: A2780 ovarian cancer cell line; assay: Cytotoxicity, PrestoBlue assay, A2780; format: cell-based, human; conditions: 72 h, PrestoBlue; read-out: IC50 (µM) after 72 h, A2780
Experimental: as §1, §2, §3, §4, §5, §6, §7, §8, §9, §10, §11, §12, §13, §14, §15, §16, §17, §18, §19, §20, §21, §22, §23, §24

[4] = tested on: A2780cis cells with acquired resistance to cisplatin; assay: Cytotoxicity, PrestoBlue assay, A2780cis; format: cell-based, human; conditions: 72 h, PrestoBlue; read-out: IC50 (µM) after 72 h, A2780cis
Experimental: as §1, §2, §3, §4, §5, §6, §7, §8, §9, §10, §11, §12, §13, §14, §15, §16, §17, §18, §19, §20, §21, §22, §23, §24

[5] = n-octanol/water; cited from earlier work
[6] = parameters: method as in PMID 21082862; conditions: cell line not stated; read-out: Cytotoxicity reported in the literature; cited from earlier work

SMILES | IC50 [1] | IC50 [2] | IC50 [3] | IC50 [4] | logPOW [5] | IC50 [6]
Cc1ccc(C(C)C)cc1.[Cl][Ru]([Cl])[PH]12CN3CN(CN(C3)C1)C2 [RAPTA-C, reference compound] | > 100 µM | > 100 µM | > 100 µM | > 100 µM | −1.8 (ref. [64]) | –
CCn1[c]([Au-][Cl])[n+](CC)c2ccccc21 [same complex bearing a chlorido ligand] | – | – | – | – | – | 6.4 ± 2 µM
